One data set concerns Lewis Lung tumor cells. The data set is described as follows: Lewis Lung Model: tumor volume and lung metastasis. The format is in vivo, Mice. The text has this: The data is expressed as the mean +/−SEM. […] Analysis of lung metastasis is done in all the animals by counting metastasis in a stereomicroscope and by histochemical analysis of consecutive lung sections.
Another data set has as its target T1, COX-2 (UniProt P35354).
T1 sequence (P35354 1-604): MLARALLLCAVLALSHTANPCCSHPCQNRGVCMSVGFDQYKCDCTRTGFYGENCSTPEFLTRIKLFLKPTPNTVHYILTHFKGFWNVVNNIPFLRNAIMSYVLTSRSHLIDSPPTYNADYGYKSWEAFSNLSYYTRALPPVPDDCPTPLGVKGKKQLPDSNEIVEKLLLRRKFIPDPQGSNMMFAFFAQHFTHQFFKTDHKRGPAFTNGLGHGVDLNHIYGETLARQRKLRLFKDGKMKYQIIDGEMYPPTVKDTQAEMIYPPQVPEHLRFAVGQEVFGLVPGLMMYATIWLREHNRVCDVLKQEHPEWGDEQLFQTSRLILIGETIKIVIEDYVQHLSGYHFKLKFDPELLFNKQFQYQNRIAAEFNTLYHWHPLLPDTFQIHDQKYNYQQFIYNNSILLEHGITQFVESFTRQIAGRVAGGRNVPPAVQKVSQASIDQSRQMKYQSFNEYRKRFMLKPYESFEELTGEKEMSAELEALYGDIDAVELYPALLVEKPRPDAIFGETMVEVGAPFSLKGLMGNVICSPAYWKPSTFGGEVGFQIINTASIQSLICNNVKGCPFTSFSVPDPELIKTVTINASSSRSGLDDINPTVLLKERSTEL
The data set can be described thus: Fast assay for COX-2 activity (PGE2 ELISA). Particulars: read-out: COX-2* IC50, recombinant COX-2, PGE2 ELISA, 10 min pre-incubation at 25° C. A general note: ELISA stands for enzyme-linked immunosorbent assay.

A further data set addresses COX-1 (UniProt P23219). The data set can be described thus: Fast assay for COX-1 activity (PGE2 ELISA). The note with it: read-out: COX-1* IC50, recombinant COX-1, PGE2 ELISA, 10 min pre-incubation at 25° C.
The conditions of data set [1]: cited from earlier work.
The conditions of data set [2]: cited from earlier work. This is another data set of the same source.
For data set [3] the following is noted: doses of 15 mg/kg/day, biliary cirrhosis trials; cited from earlier work.
For data set [4] the following is noted: cited from earlier work. This is another data set of the same source.

Molecules are shown by their SMILES. Counter-ions that a name gives are not always drawn.

Data on 13 compounds can be found in patent publication US20020103141A1, “Antiangiogenic combination therapy for the treatment of cancer” (priority 1998, published 2002).

Protocol for COX-1: (§1) The homogenate was centrifuged at 10,000×G for 30 minutes, and the resultant supernatant was stored at −80° C. before being assayed for COX activity.
(§2) COX activity was assayed as PGE2 formed/μg protein/time using an ELISA to detect the prostaglandin released. CHAPS-solubilized insect cell membranes containing the appropriate COX enzyme were incubated in a potassium phosphate buffer (0.05 M Potassium phosphate, pH 7.5, 2 μM phenol, 1 μM heme, 300 μM epinephrine) with the addition of 20 μl of 100 μM arachidonic acid (10 μM). […] The PGE2 formed was measured by standard ELISA technology (Cayman Chemical).
Protocol for COX-2: as §1, §2

As to `Cc1ccc(-c2cc(C(F)(F)F)nn2-c2ccc(S(N)(=O)=O)cc2)cc1` [Celecoxib, 4-[5-(4-methylphenyl)-3-(trifluoromethyl)-1H-pyrazol-1-yl]-benzenesulfonamide], the “size of the metastatic lesions in the lung” value in the data set on Lewis Lung tumor cells (histopathological analysis) was “dose-dependently reduces the size of the metastasic lesions in the lung”. The “effect on lung metastasis” value with Lewis Lung tumor cells (lower dose of 160 ppm in the diet) was “does not affect lung metastasis”.
As to `O=C(O)C1=Cc2cc(Cl)ccc2OC1C(F)(F)F` (stereo not shown) [Example 1, 6-Chloro-2-trifluoromethyl-2H-1-benzopyran-3-carboxylic acid], the IC50 (as a rule, the concentration that inhibits the measured activity by half) on COX-2 was found to be 700 nM; at COX-1, 43000 nM.
Turning to `Cc1c(Cl)cc2c(c1Cl)OC(C(F)(F)F)C(C(=O)O)=C2` (stereo not shown) [Example 9, 6,8-Dichloro-7-methyl-2-(trifluoromethyl)-2H-1-benzopyran-3-carboxylic acid], the melting point (usually the temperature of the solid-liquid transition) lay within 229.9 to 230.9 °C. The IC50 on COX-2 is 900 nM. Moreover, on COX-1, the IC50 came out at 1000 nM.
For `O=C(O)C1=Cc2cc(Cl)ccc2NC1C(F)(F)F` (stereo not shown) [Example 12, 6-Chloro-1,2-dihydro-2-(trifluoromethyl)-3-quinolinecarboxylic acid] the same measures were 187.8 to 188.8 °C, 600 nM and above 500000 nM.
As for `O=C(O)C1=Cc2cc(Cl)ccc2N[C@@H]1C(F)(F)F` [Example 13, (S)-6-chloro-1,2-dihydro-2-(trifluoromethyl)-3-quinolinecarboxylic acid], the melting point lay within 173 to 176 °C. For the same compound, the IC50 at COX-2 was 200 nM. Besides, on COX-1, the IC50 was above 100000 nM.
Take `O=C(O)C1=Cc2cc(Cl)cc(Cl)c2NC1C(F)(F)F` (stereo not shown) [Example 14, 6,8-Dichloro-1,2-dihydro-2-(trifluoromethyl)-3-quinolinecarboxylic acid]: the melting point lay within 223.4 to 225.7 °C. In addition, the IC50 at COX-2 came to 200 nM. Besides, the IC50 at COX-1 is 9700 nM.
For `CC(C)(C)c1ccc2c(c1)OC(C(F)(F)F)C(C(=O)O)=C2` (stereo not shown) [Example 15, 7-(1,1-Dimethylethyl)-2-trifluoromethyl-2H-1-benzopyran-3-carboxylic acid] the same measures were 165.6 to 166.8 °C, 3600 nM and 57000 nM.
For `O=C(O)C1=Cc2cc(I)ccc2NC1C(F)(F)F` (stereo not shown) [Example 21, 6-Iodo-1,2-dihydro-2-(trifluoromethyl)-3-quinolinecarboxylic acid] the same measures were 188 to 192 °C, 800 nM and above 100000 nM.
The like results for `O=C(O)C1=Cc2cc(Br)ccc2NC1C(F)(F)F` (stereo not shown) [Example 22, 6-Bromo-1,2-dihydro-2-(trifluoromethyl)-3-quinolinecarboxylic acid] were, in that order, 185 to 186 °C, 400 nM and above 100000 nM.
For the compound `CCc1c2c(nc3ccc(OC(=O)N4CCC(N5CCCCC5)CC4)cc13)-c1cc3c(c(=O)n1C2)COC(=O)[C@]3(O)CC.Cl` [Irinotecan hydrochloride, (4S)-4,11-diethyl-4-hydroxy-9-((4-piperidinopiperidino)carbonyloxy)-1H-pyrano(3′,4′:6,7)indolizino(1,2-b)quinoline-3,14(4H,12H)dione hydrochloride], the Lethality in mice entry in data set [1] is “mice: 111 mg/kg”. The Lethality in rats entry in data set [2] was “in rats: 73 mg/kg”.
For the compound `CC[C@@]1(O)C(=O)OCc2c1cc1n(c2=O)Cc2cc3c(CN(C)C)c(O)ccc3nc2-1` [Topotecan hydrochloride, (S)-10-((dimethylamino)methyl)-4-ethyl-4,9-dihydroxy-1H-pyrano(3′,4′:6,7)indolizino(1,2-B)quinoline-3,14-(4H,12H)-dione monohydrochloride], the LD10 in data set [1] (mice, single IV infusion) is recorded as 75 mg/m^2.
For the compound `C[C@H](CCC(=O)O)[C@H]1CC[C@H]2[C@@H]3[C@@H](O)C[C@@H]4C[C@H](O)CC[C@]4(C)[C@H]3CC[C@]12C` [URSO], in data set [3], the tolerability and toxicity result is “extremely well tolerated and without toxicity”.
Consider `CC[C@@]1(O)C(=O)OCc2c1cc1n(c2=O)Cc2cc3c([N+](=O)[O-])cccc3nc2-1` [rubitecan, 1H-Pyrano[3′,4′:6,7]indolizino[1,2-b]quinoline-3,14(4H,12H)-dione, -4-ethyl-4-hydroxy-10-nitro-, (S)-], for which, in data set [4] (% of patients), the “grade 4 anemia” value is given as 29% of and the “grade 4 thrombocytopenia” value is recorded as “penia in 18%”. Also, in data set [4] (occurred at each dose level), the “chemical cystitis, Grade 2 or higher” value is recorded as “(25%),”; the “diarrhea, Grade 2 or higher” value was “(32%),”; the “nausea and vomiting, Grade 2 or higher” value was “(54%),”; the “neutropenic sepsis, Grade 2 or higher” value is “sepsis (21%),”. For the same compound, the “weight loss, Grade 2 or higher” value in data set [4] (occurred at each dose level) is reported as “loss (18%)”. Besides, the Maximum tolerated dose in data set [4] (over five consecutive days repeated every week) was 1.5 mg/ mg/m2/day.
